# Data reported in article PMC6941952, “A homogeneous bioluminescent immunoassay to probe cellular signaling pathway regulation” (Communications Biology, 2020).
# Values joined by “and” are separate entries in the source; they are usually repeats but may differ in a detail not shown here. Equal values may be shown once.
# Columns and labels:
# phospho-IκBα (Ser32) = test: NanoBiT cell-based immunoassay, phosphorylated IκBα in human primary mammary epithelial cells; conditions: for P-IkB Average: background subtracted; for P-IkB Raw data / P-IkB Subtract reagent background: listed as TNF
# Experimental: (§1) All cell lines used are from ATCC. […] Human Primary Mammary Epithelial Cells (#H-6035), Human Breast Tumor Epithelial Cells (#HC-6035), Complete Human Epithelial Cell Medium (#H6621), and Gelatin-Based Coating Solution (#H6950) were purchased from Cell Biologics. The cells were cultured according to the manufacturer’s procedure. All cells were grown at 37 °C in a 5% CO2 humidified incubator and passaged before reaching 80% cell confluency. Prior to each experiment, cells were counted by combining 30 µl of cell suspension with 30 µl of trypan blue. After gentle pipetting up and down to mix the cells and the dye, the cell number was determined using Bio-Rad TC 20 cell counter.
# (§2) Prior to NanoBiT Cell-Based Immunoassay, 50,000 cells were seeded in 160 µl of complete growth media per well of a 96-well plate and incubated overnight. The cells were checked under microscope and it was determined that 50,000 cells per well in 96-well plate is under 90% confluency for all cells tested. If necessary, the cell culture media were replaced with serum-free media after the cells were stably adherent on the plate and incubated overnight. To treat cells with activators or inhibitors, medium was changed to 30 µl of medium containing inhibitors. If activation of a specific pathway is needed, the cells were stimulated with 10 µl of medium containing activators. To lyse the cells, 10 µl of lysis buffer containing 0.1% digitonin diluted in 1X immunoassay buffer with protease and phosphatase inhibitors was added and the plates were mixed vigorously for 20 min. Then, 50 µl of an antibody mix containing two primary antibodies against the target protein and NanoBiT detecting antibodies (0.3 µl each per well), diluted in 1X immunoassay buffer was added to the lysates. The plates were incubated at 23 °C for 90 min, followed by the addition of 25 µl of Nano-Glo® reagent consisting of Nano-Glo® Luciferase Assay Substrate mixed with 1X immunoassay buffer. Luminescence was measured using a plate-reading luminometer.
# (§3) Single dose or dose response inhibitor treatments were performed prior to activation of the pathways as follows. For IκBα, the cells were treated in 30 µl medium with IKK16 or MG132 for 60 min before the addition of 10 µl of DMEM containing appropriate concentration of TNFα. To measure phosphorylation of AKT or STAT3, the corresponding NanoBiT immunoassays were developed with MCF-7 or A431 cells, respectively, according the same scheme used to develop the IκBα assay using the primary antibodies for AKT and STAT3 described in the reagents section. For the AKT assay, MCF-7 cells were incubated overnight in phenol-red free DMEM medium (Gibco #21063-029) without serum. Treatment with LY294002 was performed in 30 µl medium and cells were incubated for 60 min before the addition of 1 µM Insulin. To measure STAT3 phosphorylation, A431 cells were incubated overnight in DMEM medium without serum. […] After addition of the stimulators, the cells were incubated for additional times as follows. IκBα phosphorylation and degradation analyses required both time courses and single time points as described in figures. […] The NanoBiT immunoassay protocol was followed as described above.
# (§4) All 96-well assay plates were read using a GloMax® 96 Microplate Luminometer from Promega. The instrument was set to 0.5 s integration time. In order to obtain net change of signal, the reagent background values (signal from the well containing all reagent except primary antibodies) were subtracted from the sample values. To plot and analyze the data, Microsoft Excel and GraphPad Prism® Software were used. IC50 values were determined by using a nonlinear regression fit to a sigmoidal dose response (variable slope).
# total IκBα = test: NanoBiT cell-based immunoassay, total IκBα in human primary mammary epithelial cells; conditions: for Total IkB Average: background subtracted; for Total IkB Raw data / Total IkB Subtract reagent background: listed as TNF;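 on all read-outs here: TNFα at 50 ng per ml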
# Experimental: as §1, §2, §3, §4
substance,measurement,setting,value
TNFα,P-IkB Average,phospho-IκBα (Ser32); TNF 2 min,5853
same,P-IkB Raw data,phospho-IκBα (Ser32); TNF 2 min,17220 and 16460 and 16920
same,P-IkB Subtract reagent background,phospho-IκBα (Ser32); TNF 2 min,6207 and 5447 and 5907
same,P-IkB Average,phospho-IκBα (Ser32); TNF 4 min,8003
same,P-IkB Raw data,phospho-IκBα (Ser32); TNF 4 min,18510 and 19530 and 19010
same,P-IkB Subtract reagent background,phospho-IκBα (Ser32); TNF 4 min,7497 and 8517
same,P-IkB Average,phospho-IκBα (Ser32); TNF 6 min,13540
same,P-IkB Raw data,phospho-IκBα (Ser32); TNF 6 min,23690 and 24890 and 25080
same,P-IkB Subtract reagent background,phospho-IκBα (Ser32); TNF 6 min,12677 and 13877
same,P-IkB Average,phospho-IκBα (Ser32); TNF 8 min,18690
same,P-IkB Raw data,phospho-IκBα (Ser32); TNF 8 min,28000 and 30000 and 31110
same,P-IkB Subtract reagent background,phospho-IκBα (Ser32); TNF 8 min,16987 and 18987
same,P-IkB Average,phospho-IκBα (Ser32); TNF 10 min,22970
same,P-IkB Raw data,phospho-IκBα (Ser32); TNF 10 min,33480 and 34070 and 34400
same,P-IkB Subtract reagent background,phospho-IκBα (Ser32); TNF 10 min,22467 and 23057
same,P-IkB Average,phospho-IκBα (Ser32); TNF 12 min,25163
same,P-IkB Raw data,phospho-IκBα (Ser32); TNF 12 min,35750 and 35400 and 37380
same,P-IkB Subtract reagent background,phospho-IκBα (Ser32); TNF 12 min,24737 and 24387
same,P-IkB Average,phospho-IκBα (Ser32); TNF 15 min,25267
same,P-IkB Raw data,phospho-IκBα (Ser32); TNF 15 min,35860 and 36040 and 36940
same,P-IkB Subtract reagent background,phospho-IκBα (Ser32); TNF 15 min,24847 and 25027 and 25927
same,P-IkB Average,phospho-IκBα (Ser32); TNF 30 min,18640
same,P-IkB Raw data,phospho-IκBα (Ser32); TNF 30 min,29280 and 29480 and 30200
same,P-IkB Subtract reagent background,phospho-IκBα (Ser32); TNF 30 min,18267 and 18467 and 19187
same,P-IkB Average,phospho-IκBα (Ser32); TNF 45 min,16850
same,P-IkB Raw data,phospho-IκBα (Ser32); TNF 45 min,28120 and 27980 and 27490
same,P-IkB Subtract reagent background,phospho-IκBα (Ser32); TNF 45 min,17107 and 16967 and 16477
same,P-IkB Average,phospho-IκBα (Ser32); TNF 60 min,19710
same,P-IkB Raw data,phospho-IκBα (Ser32); TNF 60 min,31240 and 30980 and 29950
same,P-IkB Subtract reagent background,phospho-IκBα (Ser32); TNF 60 min,20227 and 19967 and 18937
same,Total IkB Average,total IκBα; TNF 2 min,18292
same,Total IkB Raw data,total IκBα; TNF 2 min,29190 and 27950 and 27350
same,Total IkB Subtract reagent background,total IκBα; TNF 2 min,19319 and 18079 and 17479
same,Total IkB Average,total IκBα; TNF 4 min,16139
same,Total IkB Raw data,total IκBα; TNF 4 min,26330 and 26760 and 24940
same,Total IkB Subtract reagent background,total IκBα; TNF 4 min,16459 and 16889 and 15069
same,Total IkB Average,total IκBα; TNF 6 min,13185
same,Total IkB Raw data,total IκBα; TNF 6 min,23190 and 23370 and 22610
same,Total IkB Subtract reagent background,total IκBα; TNF 6 min,13319 and 13499 and 12739
same,Total IkB Average,total IκBα; TNF 8 min,9145
same,Total IkB Raw data,total IκBα; TNF 8 min,19430 and 18940 and 18680
same,Total IkB Subtract reagent background,total IκBα; TNF 8 min,9559 and 9069 and 8809
same,Total IkB Average,total IκBα; TNF 10 min,6539
same,Total IkB Raw data,total IκBα; TNF 10 min,16860 and 16350 and 16020
same,Total IkB Subtract reagent background,total IκBα; TNF 10 min,6989 and 6479 and 6149
same,Total IkB Average,total IκBα; TNF 12 min,4795
same,Total IkB Raw data,total IκBα; TNF 12 min,14910 and 14630 and 14460
same,Total IkB Subtract reagent background,total IκBα; TNF 12 min,5039 and 4759 and 4589
same,Total IkB Average,total IκBα; TNF 15 min,3099
same,Total IkB Raw data,total IκBα; TNF 15 min,13120 and 12980 and 12810
same,Total IkB Subtract reagent background,total IκBα; TNF 15 min,3249 and 3109 and 2939
same,Total IkB Average,total IκBα; TNF 30 min,3035
same,Total IkB Raw data,total IκBα; TNF 30 min,13030 and 12940 and 12750
same,Total IkB Subtract reagent background,total IκBα; TNF 30 min,3159 and 3069 and 2879
same,Total IkB Average,total IκBα; TNF 45 min,5225
same,Total IkB Raw data,total IκBα; TNF 45 min,15670 and 15120 and 14500
same,Total IkB Subtract reagent background,total IκBα; TNF 45 min,5799 and 5249 and 4629
same,Total IkB Average,total IκBα; TNF 60 min,7062
same,Total IkB Raw data,total IκBα; TNF 60 min,16790 and 17170 and 16840
same,Total IkB Subtract reagent background,total IκBα; TNF 60 min,6919 and 7299 and 6969
